Test results taken from ChEMBL document CHEMBL1153012, “Synthesis and antibacterial activity of novel 5-(4-methyl-1H-1,2,3-triazole) methyl oxazolidinones” (2009).
Converted amounts (≈) assume the structure as drawn.

What was measured:
Format in all cases: functional
Staphylococcus aureus [1] = experiment: Antibacterial activity against Staphylococcus aureus ATCC 25923 by agar dilution method
Moraxella catarrhalis = experiment: Antibacterial activity against Moraxella catarrhalis by agar dilution method
Haemophilus influenzae [2] = experiment: Antibacterial activity against Haemophilus influenzae isolate 283 by agar dilution method
Haemophilus influenzae [3] = experiment: Antibacterial activity against Haemophilus influenzae ATCC 49247 by agar dilution method
Staphylococcus [4] = experiment: Antibacterial activity against methicillin resistant coagulase-negative Staphylococcus by agar dilution method
Haemophilus influenzae [5] = experiment: Antibacterial activity against Haemophilus influenzae isolate 285 by agar dilution method
Staphylococcus aureus [6] = experiment: Antibacterial activity against methicillin-resistant Staphylococcus aureus by agar dilution method
Haemophilus influenzae [7] = experiment: Antibacterial activity against Haemophilus influenzae isolate 280 by agar dilution method
Enterococcus [8] = experiment: Antibacterial activity against vancomycin-resistant Enterococcus by agar dilution method
Haemophilus influenzae [9] = experiment: Antibacterial activity against Haemophilus influenzae isolate 282 by agar dilution method
Staphylococcus aureus [10] = experiment: Antibacterial activity against Staphylococcus aureus ATCC 25923 by agar dilution method in presence of human plasma; details: ATCC 25923, Plasma
Streptococcus pneumoniae = experiment: Antibacterial activity against Streptococcus pneumoniae by agar dilution method
Staphylococcus aureus [11] = experiment: Antibacterial activity against methicillin-susceptible Staphylococcus aureus by agar dilution method
Enterococcus [12] = experiment: Antibacterial activity against vancomycin-sensitive Enterococcus by agar dilution method
Escherichia coli = experiment: Antibacterial activity against Escherichia coli ATCC 25922 by agar dilution method
Staphylococcus [13] = experiment: Antibacterial activity against methicillin-sensitive coagulase-negative Staphylococcus by agar dilution method

SMILES | MIC (Staphylococcus aureus [1]) [µg/mL] | MIC (Moraxella catarrhalis) [µg/mL] | MIC (Haemophilus influenzae [2]) [µg/mL] | MIC (Haemophilus influenzae [3]) [µg/mL] | MIC (Staphylococcus [4]) [µg/mL] | MIC (Haemophilus influenzae [5]) [µg/mL] | MIC (Staphylococcus aureus [6]) [µg/mL] | MIC (Haemophilus influenzae [7]) [µg/mL] | MIC (Enterococcus [8]) [µg/mL] | MIC (Haemophilus influenzae [9]) [µg/mL] | MIC (Staphylococcus aureus [10]) [µg/mL] | MIC (Streptococcus pneumoniae) [µg/mL] | MIC (Staphylococcus aureus [11]) [µg/mL] | MIC (Enterococcus [12]) [µg/mL] | MIC (Escherichia coli) [µg/mL] | MIC (Staphylococcus [13]) [µg/mL]
O=C1O[C@@H](Cn2ccnn2)CN1c1ccc(N2CCOCC2)c(F)c1 | 1 (≈ 2.88 µM) | > 16 | 32 (≈ 92.1 µM) | 32 (≈ 92.1 µM) | 0.5 (≈ 1.44 µM) | 32 (≈ 92.1 µM) | 0.5 (≈ 1.44 µM) | 32 (≈ 92.1 µM) | 1 (≈ 2.88 µM) | 32 (≈ 92.1 µM) | 1 | 0.5 (≈ 1.44 µM) | 0.5 (≈ 1.44 µM) | 0.5 (≈ 1.44 µM) | > 64 | 0.5 (≈ 1.44 µM)
Cc1cn(C[C@H]2CN(c3ccc(N4CCN(C(=O)C(F)(F)F)CC4)c(F)c3)C(=O)O2)nn1 | 4 (≈ 8.76 µM) | 8 (≈ 17.5 µM) | 64 (≈ 140 µM) | 64 (≈ 140 µM) | 1 (≈ 2.19 µM) | 64 (≈ 140 µM) | 2 (≈ 4.38 µM) | 64 (≈ 140 µM) | 1 (≈ 2.19 µM) | 64 (≈ 140 µM) | 8 | 1 (≈ 2.19 µM) | 1 (≈ 2.19 µM) | 1 (≈ 2.19 µM) | 8 (≈ 17.5 µM) | 1 (≈ 2.19 µM)
Cc1cn(C[C@H]2CN(c3ccc(N4CCN(C(=O)C(Cl)Cl)CC4)c(F)c3)C(=O)O2)nn1 | 2 (≈ 4.24 µM) | 16 (≈ 33.9 µM) | 64 (≈ 136 µM) | 64 (≈ 136 µM) | 0.5 (≈ 1.06 µM) | 32 (≈ 67.9 µM) | 1 (≈ 2.12 µM) | 32 (≈ 67.9 µM) | 1 (≈ 2.12 µM) | 32 (≈ 67.9 µM) | 8 | 1 (≈ 2.12 µM) | 1 (≈ 2.12 µM) | 1 (≈ 2.12 µM) | > 64 | 1 (≈ 2.12 µM)
CC(=O)N1CCN(c2ccc(N3C[C@H](Cn4cc(C)nn4)OC3=O)cc2F)CC1 | 2 (≈ 4.97 µM) | 8 (≈ 19.9 µM) | 64 (≈ 159 µM) | 64 (≈ 159 µM) | 1 (≈ 2.48 µM) | 64 (≈ 159 µM) | 1 (≈ 2.48 µM) | 64 (≈ 159 µM) | 1 (≈ 2.48 µM) | 64 (≈ 159 µM) | 8 | 1 (≈ 2.48 µM) | 1 (≈ 2.48 µM) | 1 (≈ 2.48 µM) | > 64 | 1 (≈ 2.48 µM)
CCC(=O)N1CCN(c2ccc(N3C[C@H](Cn4cc(C)nn4)OC3=O)cc2F)CC1 | 2 (≈ 4.8 µM) | 16 (≈ 38.4 µM) | 32 (≈ 76.8 µM) | 32 (≈ 76.8 µM) | 1 (≈ 2.4 µM) | 32 (≈ 76.8 µM) | 1 (≈ 2.4 µM) | 32 (≈ 76.8 µM) | 1 (≈ 2.4 µM) | 32 (≈ 76.8 µM) | 8 | 1 (≈ 2.4 µM) | 1 (≈ 2.4 µM) | 1 (≈ 2.4 µM) | > 64 | 1 (≈ 2.4 µM)
Cc1cn(C[C@H]2CN(c3ccc(N4CCN(C(=O)OC(C)(C)C)CC4)c(F)c3)C(=O)O2)nn1 | – | 64 (≈ 139 µM) | > 64 | > 64 | – | > 64 | – | > 64 | – | > 64 | 64 | 8 (≈ 17.4 µM) | 2 (≈ 4.34 µM) | – | > 64 | –
Cc1cn(C[C@H]2CN(c3ccc(N4CCN(C(=O)C(Cl)(Cl)Cl)CC4)c(F)c3)C(=O)O2)nn1 | 1 (≈ 1.98 µM) | 32 (≈ 63.3 µM) | > 64 | > 64 | 1 (≈ 1.98 µM) | > 64 | 1 (≈ 1.98 µM) | > 64 | 1 (≈ 1.98 µM) | > 64 | 16 | 4 (≈ 7.91 µM) | 1 (≈ 1.98 µM) | 1 (≈ 1.98 µM) | > 64 | 1 (≈ 1.98 µM)
Cc1cn(C[C@H]2CN(c3ccc(N4CCN(C(=O)CC(C)C)CC4)c(F)c3)C(=O)O2)nn1 | 4 (≈ 9 µM) | 32 (≈ 72 µM) | > 64 | 64 (≈ 144 µM) | 2 (≈ 4.5 µM) | > 64 | 2 (≈ 4.5 µM) | > 64 | 4 (≈ 9 µM) | > 64 | 32 | 4 (≈ 9 µM) | 2 (≈ 4.5 µM) | 2 (≈ 4.5 µM) | > 64 | 2 (≈ 4.5 µM)
Cc1cn(C[C@H]2CN(c3ccc(N4CCOCC4)c(F)c3)C(=O)O2)nn1 | 2 (≈ 5.53 µM) | 8 (≈ 22.1 µM) | 64 (≈ 177 µM) | 64 (≈ 177 µM) | 1 (≈ 2.77 µM) | 64 (≈ 177 µM) | 0.5 (≈ 1.38 µM) | 64 (≈ 177 µM) | 1 (≈ 2.77 µM) | 64 (≈ 177 µM) | 4 | 1 (≈ 2.77 µM) | 1 (≈ 2.77 µM) | 1 (≈ 2.77 µM) | > 64 | 1 (≈ 2.77 µM)
CCOC(=O)N1CCN(c2ccc(N3C[C@H](Cn4cc(C)nn4)OC3=O)cc2F)CC1 | 1 (≈ 2.31 µM) | 16 (≈ 37 µM) | 64 (≈ 148 µM) | 64 (≈ 148 µM) | 1 (≈ 2.31 µM) | 64 (≈ 148 µM) | 1 (≈ 2.31 µM) | 64 (≈ 148 µM) | 1 (≈ 2.31 µM) | 64 (≈ 148 µM) | 32 | 4 (≈ 9.25 µM) | 1 (≈ 2.31 µM) | 1 (≈ 2.31 µM) | > 64 | 1 (≈ 2.31 µM)
Cc1cn(C[C@H]2CN(c3ccc(N4CCN(C(=O)c5ccccc5)CC4)c(F)c3)C(=O)O2)nn1 | 2 (≈ 4.31 µM) | 32 (≈ 68.9 µM) | > 64 | > 64 | 1 (≈ 2.15 µM) | > 64 | 1 (≈ 2.15 µM) | > 64 | 1 (≈ 2.15 µM) | > 64 | 32 | 4 (≈ 8.61 µM) | 1 (≈ 2.15 µM) | 1 (≈ 2.15 µM) | > 64 | 1 (≈ 2.15 µM)
Cc1cn(C[C@H]2CN(c3ccc(N4CCN(C(=O)C5CC5)CC4)c(F)c3)C(=O)O2)nn1 | 2 (≈ 4.67 µM) | 16 (≈ 37.3 µM) | 32 (≈ 74.7 µM) | 32 (≈ 74.7 µM) | 1 (≈ 2.33 µM) | 32 (≈ 74.7 µM) | 2 (≈ 4.67 µM) | 32 (≈ 74.7 µM) | 1 (≈ 2.33 µM) | 32 (≈ 74.7 µM) | 16 | 2 (≈ 4.67 µM) | 2 (≈ 4.67 µM) | 1 (≈ 2.33 µM) | > 64 | 1 (≈ 2.33 µM)
Cc1cn(C[C@H]2CN(c3ccc(N4CCN(C(=O)C5CCCCC5)CC4)c(F)c3)C(=O)O2)nn1 | 2 (≈ 4.25 µM) | 32 (≈ 68 µM) | 32 (≈ 68 µM) | 32 (≈ 68 µM) | 1 (≈ 2.13 µM) | 32 (≈ 68 µM) | 2 (≈ 4.25 µM) | 32 (≈ 68 µM) | 1 (≈ 2.13 µM) | 32 (≈ 68 µM) | 32 | 4 (≈ 8.5 µM) | 1 (≈ 2.13 µM) | 1 (≈ 2.13 µM) | > 64 | 1 (≈ 2.13 µM)
CCSC(=O)N1CCN(c2ccc(N3C[C@H](Cn4cc(C)nn4)OC3=O)cc2F)CC1 | 2 (≈ 4.46 µM) | 16 (≈ 35.7 µM) | > 64 | > 64 | 1 (≈ 2.23 µM) | > 64 | 1 (≈ 2.23 µM) | > 64 | 1 (≈ 2.23 µM) | > 64 | 64 | 2 (≈ 4.46 µM) | 1 (≈ 2.23 µM) | 1 (≈ 2.23 µM) | > 64 | 1 (≈ 2.23 µM)
Cc1cn(C[C@H]2CN(c3ccc(N4CCN(C(=O)C(C)C)CC4)c(F)c3)C(=O)O2)nn1 | 1 (≈ 2.32 µM) | 16 (≈ 37.2 µM) | > 64 | > 64 | 0.5 (≈ 1.16 µM) | > 64 | 0.5 (≈ 1.16 µM) | > 64 | 0.5 (≈ 1.16 µM) | > 64 | 16 | 2 (≈ 4.65 µM) | 1 (≈ 2.32 µM) | 1 (≈ 2.32 µM) | > 64 | 0.5 (≈ 1.16 µM)
Cc1cn(C[C@H]2CN(c3ccc(N4CCN(C=O)CC4)c(F)c3)C(=O)O2)nn1 | 2 (≈ 5.15 µM) | 8 (≈ 20.6 µM) | 64 (≈ 165 µM) | 64 (≈ 165 µM) | 1 (≈ 2.57 µM) | 64 (≈ 165 µM) | 1 (≈ 2.57 µM) | 64 (≈ 165 µM) | 1 (≈ 2.57 µM) | 64 (≈ 165 µM) | 8 | 1 (≈ 2.57 µM) | 1 (≈ 2.57 µM) | 1 (≈ 2.57 µM) | > 64 | 1 (≈ 2.57 µM)
CCCCC(=O)N1CCN(c2ccc(N3C[C@H](Cn4cc(C)nn4)OC3=O)cc2F)CC1 | 2 (≈ 4.5 µM) | 16 (≈ 36 µM) | 64 (≈ 144 µM) | 64 (≈ 144 µM) | 1 (≈ 2.25 µM) | 64 (≈ 144 µM) | 1 (≈ 2.25 µM) | 64 (≈ 144 µM) | 1 (≈ 2.25 µM) | 64 (≈ 144 µM) | 32 | 2 (≈ 4.5 µM) | 1 (≈ 2.25 µM) | 1 (≈ 2.25 µM) | > 64 | 1 (≈ 2.25 µM)
CCC(C)C(=O)N1CCN(c2ccc(N3C[C@H](Cn4cc(C)nn4)OC3=O)cc2F)CC1 (some centres not stated) | 2 (≈ 4.5 µM) | 32 (≈ 72 µM) | > 64 | > 64 | 2 (≈ 4.5 µM) | > 64 | 2 (≈ 4.5 µM) | > 64 | 4 (≈ 9 µM) | > 64 | 32 | 4 (≈ 9 µM) | 2 (≈ 4.5 µM) | 4 (≈ 9 µM) | > 64 | 2 (≈ 4.5 µM)
CC(=O)NC[C@H]1CN(c2ccc(N3CCOCC3)c(F)c2)C(=O)O1 [LINEZOLID] | – | 8 (≈ 23.7 µM) | 16 (≈ 47.4 µM) | 8 (≈ 23.7 µM) | 0.5 (≈ 1.48 µM) | 8 (≈ 23.7 µM) | 0.5 (≈ 1.48 µM) | 8 (≈ 23.7 µM) | 0.5 (≈ 1.48 µM) | 16 (≈ 47.4 µM) | – | – | 0.5 (≈ 1.48 µM) | 0.5 (≈ 1.48 µM) | > 64 | 0.5 (≈ 1.48 µM)
CN[C@H](CC(C)C)C(=O)N[C@H]1C(=O)N[C@@H](CC(N)=O)C(=O)N[C@H]2C(=O)N[C@H]3C(=O)N[C@H](C(=O)N[C@H](C(=O)O)c4cc(O)cc(O)c4-c4cc3ccc4O)[C@H](O)c3ccc(c(Cl)c3)Oc3cc2cc(c3O[C@@H]2O[C@H](CO)[C@@H](O)[C@H](O)[C@H]2O[C@H]2C[C@](C)(N)[C@H](O)[C@H](C)O2)Oc2ccc(cc2Cl)[C@H]1O [VANCOMYCIN] | – | > 16 | > 16 | > 16 | 1 (≈ 0.69 µM) | > 16 | – | > 16 | > 64 | > 16 | – | 0.5 (≈ 0.345 µM) | – | 0.25 (≈ 0.173 µM) | > 64 | 1 (≈ 0.69 µM)
